From ChEMBL document CHEMBL6092158, “Green synthesis of neuroprotective spirocyclic chalcone derivatives and their role in protecting against traumatic optic nerve injury” (Eur J Med Chem, 2024)
Active and inactive are the calls of the source. No cut-off for these calls is given here.

Key:
R28 [1] = experiment: Cytoprotective activity against hydrogen peroxide-induced cytotoxicity in rat R28 cells assessed as increase in cell viability at 10 uM preincubated for 24 hrs followed by incubation with H2O2 for 24 hrs by MTT assay; assay type: functional, cell-based
R28 [2] = experiment: Cytoprotective activity against glutamate-induced cytotoxicity in rat R28 cells assessed as increase in cell viability at 10 uM incubated for 24 hrs in presence of glutamate by MTT assay; assay type: functional, cell-based
[3] = Induction of apoptosis in rat R28 cells assessed as early apoptotic cells incubated for 24 hrs by AnnexinV-FITC/PI staining based flow cytometry (reference value: 1.53%); assay type: toxicity, cell-based; conditions: r28, 24 h
Mus musculus [4] = experiment: Neuroprotective activity against optic nerve crush C57BL/6J mouse model assessed as restoration of P1 latency of optic nerve at 1 ug/ul administered into vitreous cavity immediately after ONC surgery and measured on day 7 post-surgery by […] based electrophysiological analysis; assay type: functional, organism-based; conditions: dose 1.0 µg/microL, route ivt, time 7.0 day
[5] = Acute toxicity in C57BL/6J mouse assessed as liver damage at 500 mg/kg, ip and measured on day 14 by Hematoxylin-Eosin staining based analysis; assay type: organism-based; conditions: in vivo, 336 h, time 14 day
[6] = Acute toxicity in C57BL/6J mouse assessed as retinal damage at 500 mg/kg, ip and measured on day 14 by Hematoxylin-Eosin staining based analysis; assay type: organism-based; conditions: in vivo, 336 h, time 14 day
Mus musculus [7] = experiment: Neuroprotective activity against optic nerve crush C57BL/6J mouse model assessed as increase in P1-N2 wave amplitude of optic nerve at 1 ug/ul administered into vitreous cavity immediately after ONC surgery and measured on day 7 post-surgery by F-EVP based electrophysiological analysis; assay type: functional, organism-based; conditions: dose 1.0 µg/microL, route ivt, time 7.0 day
[8] = Acute toxicity in C57BL/6J mouse assessed as lung damage at 500 mg/kg, ip and measured on day 14 by Hematoxylin-Eosin staining based analysis; assay type: organism-based; conditions: in vivo, 336 h, time 14 day
R28 [9] = experiment: Antioxidant activity in rat R28 cells assessed as inhibition of glutamate-induced reactive oxygen species generation by measuring decrease in fluorescence intensity at 5 uM incubated for 24 hrs by DCFH-DA staining based immunofluorescence analysis; assay type: functional, cell-based
Cortical neurone [10] = experiment: Cytoprotective activity against oxidative glutamate-induced cytotoxicity in rat primary cortical neuronal cells assessed as increase in cell viability at 1.25 uM incubated for 24 hrs by CCK8 assay; assay type: functional, cell-based
[11] = Induction of apoptosis in rat R28 cells assessed as late apoptotic cells incubated for 24 hrs by AnnexinV-FITC/PI staining based flow cytometry (reference value: 4.59%); assay type: toxicity, cell-based; conditions: r28, 24 h
Mus musculus [12] = experiment: Effect on total JNK level in retinal tissue of optic nerve crush C57BL/6J mouse model at 1 ug/ul administered into vitreous cavity immediately after ONC surgery and measured on day 7 post-surgery by western blot analysis; assay type: functional; conditions: dose 1.0 µg/microL, route ivt, time 7.0 day
[13] = Inhibition of glutamate-induced apoptosis in rat R28 cells assessed as late apoptotic cells incubated for 24 hrs by AnnexinV-FITC/PI staining based flow cytometry (reference value: 3.47%); assay type: functional; parameters: scale not given: the % may be the effect or the level left
[14] = Cytotoxicity against rat R28 cells assessed as effect on cell viability by MTT assay; assay type: toxicity, cell-based
[15] = Inhibition of glutamate-induced apoptosis in rat R28 cells assessed as necrotic cells incubated for 24 hrs by AnnexinV-FITC/PI staining based flow cytometry (reference value: 0.68%); assay type: functional; parameters: scale not given: the % may be the effect or the level left
[16] = Acute toxicity in C57BL/6J mouse assessed as heart weight at 500 mg/kg, ip and measured on day 14; assay type: organism-based; conditions: in vivo, 336 h, time 14 day
[17] = Acute toxicity in C57BL/6J mouse assessed as body weight at 500 mg/kg, ip measured for 14 days; assay type: organism-based; conditions: in vivo, 336 h, time 14 day
[18] = Acute toxicity in C57BL/6J mouse assessed as spleen damage at 500 mg/kg, ip and measured on day 14 by Hematoxylin-Eosin staining based analysis; assay type: organism-based; conditions: in vivo, 336 h, time 14 day
Mus musculus [19] = experiment: Neuroprotective activity against optic nerve crush C57BL/6J mouse model assessed as increase in ganglion cell layer complex at 1 ug/ul administered into vitreous cavity immediately after ONC surgery and measured on day 7 post-surgery by optical coherence examination analysis; assay type: functional, organism-based; conditions: dose 1.0 µg/microL, route ivt, time 7.0 day
R28 [20] = experiment: Antioxidant activity in rat R28 cells assessed as inhibition of glutamate-induced oxidative stress by measuring decrease in intracellular MDA level; assay type: functional, cell-based
[21] = Antioxidant activity assessed as DPPH radical scavenging activity at 100 uM by DPPH assay; assay type: functional
Mus musculus [22] = experiment: Neuroprotective activity against optic nerve crush C57BL/6J mouse model assessed as increase in inner plexiform layer complex at 1 ug/ul administered into vitreous cavity immediately after ONC surgery and measured on day 7 post-surgery by optical coherence examination analysis; assay type: functional, organism-based; conditions: dose 1.0 µg/microL, route ivt, time 7.0 day
[23] = Acute toxicity in C57BL/6J mouse assessed as spleen weight at 500 mg/kg, ip and measured on day 14; assay type: organism-based; conditions: in vivo, 336 h, time 14 day
[24] = Acute toxicity in C57BL/6J mouse assessed as kidney damage at 500 mg/kg, ip and measured on day 14 by Hematoxylin-Eosin staining based analysis; assay type: organism-based; conditions: in vivo, 336 h, time 14 day
[25] = Inhibition of glutamate-induced apoptosis in rat R28 cells assessed as early apoptotic cells incubated for 24 hrs by AnnexinV-FITC/PI staining based flow cytometry (reference value: 69.04%); assay type: functional; parameters: scale not given: the % may be the effect or the level left
Mus musculus [26] = experiment: Neuroprotective activity against optic nerve crush C57BL/6J mouse model assessed as increase in retinal nerve fibre layer thickness complex at 1 ug/ul administered into vitreous cavity immediately after ONC surgery and measured on day 7 post-surgery by optical coherence examination analysis; assay type: functional, organism-based; conditions: dose 1.0 µg/microL, route ivt, time 7.0 day
R28 [27] = experiment: Cytoprotective activity against oxidative glutamate-induced cytotoxicity in rat R28 cells assessed as increase in cell viability at 1.25 to 2.5 uM incubated for 24 hrs by MTT assay; assay type: functional, cell-based; conditions: dose 1.25-2.5 µM
[28] = Acute toxicity in C57BL/6J mouse assessed as heart damage at 500 mg/kg, ip and measured on day 14 by Hematoxylin-Eosin staining based analysis; assay type: organism-based; conditions: in vivo, 336 h, time 14 day
[29] = Acute toxicity in C57BL/6J mouse assessed as ALT level in serum at 500 mg/kg, ip and measured on day 14; assay type: organism-based; conditions: in vivo, 336 h, time 14 day
[30] = Antioxidant activity in rat R28 cells assessed as inhibition of glutamate-induced reactive oxygen species generation at 5 uM incubated for 24 hrs by DCFH-DA staining based flow cytometry (reference value: 16.61%); assay type: functional; parameters: scale not given: the % may be the effect or the level left
R28 [31] = experiment: Inhibition of glutamate-induced apoptosis in rat R28 cells assessed as decrease in number of PI-positive cells at 5 uM incubated for 24 hrs by Hoechst33342/PI staining based fluorescence microscopic analysis; assay type: functional, cell-based
[32] = Acute toxicity in C57BL/6J mouse assessed as animal activity level at 500 mg/kg, ip; assay type: organism-based; conditions: in vivo
[33] = Induction of apoptosis in rat R28 cells assessed as necrotic cells incubated for 24 hrs by AnnexinV-FITC/PI staining based flow cytometry (reference value: 2.54%); assay type: toxicity, cell-based; conditions: r28, 24 h
[34] = Acute toxicity in C57BL/6J mouse assessed as AST level in serum at 500 mg/kg, ip and measured on day 14; assay type: organism-based; conditions: in vivo, 336 h, time 14 day
[35] = Induction of apoptosis in rat R28 cells assessed as viable cells incubated for 24 hrs by AnnexinV-FITC/PI staining based flow cytometry (reference value: 91.34%); assay type: toxicity, cell-based; conditions: read-out: Activity
Mus musculus [36] = experiment: Inhibition of glutamate-induced JNK phosphorylation in retinal tissue of optic nerve crush C57BL/6J mouse model at 1 ug/ul administered into vitreous cavity immediately after ONC surgery and measured on day 7 post-surgery by western blot analysis; assay type: functional; conditions: dose 1.0 µg/microL, route ivt, time 7.0 day
[37] = Acute toxicity in C57BL/6J mouse assessed as liver weight at 500 mg/kg, ip and measured on day 14; assay type: organism-based; conditions: in vivo, 336 h, time 14 day
Cortical neurone [38] = experiment: Antioxidant activity in rat primary cortical neuron assessed as inhibition of glutamate-induced reactive oxygen species generation at 5 uM incubated for 24 hrs by DCFH-DA staining based immunofluorescence analysis; assay type: functional, cell-based
Mus musculus [39] = experiment: Neuroprotective activity against optic nerve crush C57BL/6J mouse model at 1 ug/ul administered into vitreous cavity immediately after ONC surgery and measured on day 7 post-surgery by optical coherence examination analysis; assay type: functional, organism-based; conditions: dose 1.0 µg/microL, route ivt, time 7.0 day
[40] = Antioxidant activity assessed as DPPH radical scavenging activity at 20 uM by DPPH assay; assay type: functional
[41] = Acute toxicity in C57BL/6J mouse assessed as kidney weight at 500 mg/kg, ip and measured on day 14; assay type: organism-based; conditions: in vivo, 336 h, time 14 day
[42] = Effect on reactive oxygen species generation in rat R28 cells at 5 uM incubated for 24 hrs by DCFH-DA staining based flow cytometry (reference value: 0.49%); assay type: toxicity, cell-based; conditions: r28, 24 h
[43] = Acute toxicity in C57BL/6J mouse assessed as lungs weight at 500 mg/kg, ip and measured on day 14; assay type: organism-based; conditions: in vivo, 336 h, time 14 day
[44] = Inhibition of glutamate-induced apoptosis in rat R28 cells assessed as viable cells incubated for 24 hrs by AnnexinV-FITC/PI staining based flow cytometry (reference value: 28.81%); assay type: functional

With `CN1C[C@H](c2ccc(O)c(O)c2)[C@@H](C(=O)c2ccc(OC(F)(F)F)cc2)[C@]12C(=O)Nc1ccccc12` the Activity (R28 [1]) was “Active” and the Activity (R28 [2]) was “Active”.
With `CN1C[C@H](c2ccc(O)c(O)c2)[C@@H](C(=O)c2ccc(Br)cc2)[C@]12C(=O)Nc1ccccc12` the Activity (R28 [1]) was “Active” and the Activity (R28 [2]) was “Active”.
For `CN1C[C@H](c2ccc(O)c(O)c2)[C@@H](C(=O)c2cccc(F)c2)[C@]12C(=O)Nc1ccccc12`, the Activity (R28 [1]) was “Active” and the Activity (R28 [2]) was “Active”.
With `COc1ccc(C(=O)[C@@H]2[C@@H](c3ccc(O)c(O)c3)CN(C)[C@@]23C(=O)Nc2ccccc23)cc1` the Activity (R28 [1]) was “Active” and the Activity (R28 [2]) was “Active”.
In the case of `CN1C[C@H](c2ccc(O)c(O)c2)[C@@H](C(=O)c2ccc(O)cc2)[C@]12C(=O)Nc1ccccc12`, the Activity (R28 [1]) is reported as “Active” and the Activity (R28 [2]) is reported as “Active”.
In the case of `CN1C[C@H](c2ccc(O)c(O)c2)[C@@H](C(=O)c2cccc(Cl)c2)[C@]12C(=O)Nc1ccccc12`, the Activity (R28 [1]) is reported as “Active” and the Activity (R28 [2]) is reported as “Active”.
With `CCCc1ccc(C(=O)[C@@H]2[C@@H](c3ccc(O)c(O)c3)CN(C)[C@@]23C(=O)Nc2ccccc23)cc1` the Activity (R28 [1]) was “Active” and the Activity (R28 [2]) was “Active”.
With `CN1C[C@H](c2ccc(O)c(O)c2)[C@@H](C(=O)c2ccccc2)[C@]12C(=O)Nc1ccccc12` the Activity (R28 [1]) was “Active” and the Activity (R28 [2]) was “Active”.
In the case of `CN1C[C@H](c2ccc(O)c(O)c2)[C@@H](C(=O)c2ccc([N+](=O)[O-])cc2)[C@]12C(=O)Nc1ccccc12`, the Activity (R28 [1]) is reported as “inactive” and the Activity (R28 [2]) is reported as “inactive”.
For `CN1C[C@H](c2ccc(O)c(O)c2)[C@@H](C(=O)c2cc(F)cc(F)c2)[C@]12C(=O)Nc1ccccc12`, the Activity [3] was 1.94%, the Activity (Mus musculus [4]) was “Active” and the Activity [5] was “Non-toxic”. For the same compound, the Activity [6] was “Non-toxic”, the Activity (Mus musculus [7]) was “Active” and the Activity [8] was “Non-toxic”. The Activity (R28 [9]) was “Active”, the Activity (Cortical neurone [10]) was “Active” and the Activity (R28 [1]) was “Active”. For the same compound, the Activity [11] was 8.4%, the Activity (Mus musculus [12]) was “inactive” and the Activity [13] was 6.05%. The Activity [14] was “Toxic”, the Activity [15] was 2.54% and the Activity [16] was “Non-toxic”. For the same compound, the Activity [17] was “Non-toxic”, the Activity [18] was “Non-toxic” and the Activity (Mus musculus [19]) was “Active”. The Activity (R28 [20]) was “Active”, the inhibition [21] was 95% and the Activity (Mus musculus [22]) was “Active”. The Activity [23] was “Non-toxic”, the Activity [24] was “Non-toxic” and the Activity [25] was 1.63%. The Activity (Mus musculus [26]) was “Active”, the Activity (R28 [27]) was “Active” and the Activity [28] was “Non-toxic”. The Activity [29] was “Non-toxic”, the Activity [30] was 4.62% and the Activity (R28 [2]) was “Active”. For the same compound, the inhibition (R28 [31]) was “Active”, the Activity [32] was “Non-toxic” and the Activity [33] was 2.13%. The Activity [34] was “Non-toxic”, the viability at 24 h [35] was 87.5% and the inhibition (Mus musculus [36]) was “Active”. The Activity [37] was “Non-toxic”, the Activity (Cortical neurone [38]) was “Active” and the Activity (Mus musculus [39]) was “Active”. The Activity [40] was “Active”, the Activity [41] was “Non-toxic” and the Activity [42] was 2.05%. For the same compound, the Activity [43] was “Non-toxic” and the Activity [44] was 89.77%.
With `CN1C[C@H](c2ccc(O)c(O)c2)[C@@H](C(=O)c2ccc(F)cc2)[C@]12C(=O)Nc1ccccc12` the Activity (R28 [1]) was “Active” and the Activity (R28 [2]) was “Active”.
For `COc1ccc(C(=O)[C@@H]2[C@@H](c3ccc(O)c(O)c3)CN(C)[C@@]23C(=O)Nc2ccccc23)cc1OC`, the Activity (R28 [1]) was “Active” and the Activity (R28 [2]) was “Active”.
